Four compounds from patent publication US7582694B2, “Antimicrobial lubricant for wood fiber-plastic composites” (Lonza, Inc., priority 2002, dated 2009) can be followed below.

One test concerns C. globosum. The experiment in a line: agar plate method, inhibition of fungus growth. In kind it is cell-based. The conditions noted are these: for percent inhibition (retardation) of the fungal growth, C. globosum: aqueous solution. As for the experimental part: (§1) The efficacy of aqueous solutions of alkyldimethylbenzyl ammonium lauryl sulfate and didecyldimethyl ammonium lauryl sulfate to inhibit fungus growth was evaluated by the agar plate method known in the art. Also tested were two commercially known biocides: didecyldimethyl ammonium chloride (Bardac® 2080) and alkyldimethylbenzyl ammonium chloride (Barquat® MB-80).
(§2) The test data are reported as a percent inhibition (retardation) of the fungal growth.

Another test has as its system G. trabeum. The experiment in a line: agar plate method, inhibition of fungus growth. In kind it is cell-based. The conditions noted are these: for percent inhibition (retardation) of the fungal growth, G. trabeum: aqueous solution. The procedure: as §1, §2
The next test has as its system P. placenta. The experiment in a line: agar plate method, inhibition of fungus growth. The note with it: for percent inhibition (retardation) of the fungal growth, P. placenta: aqueous solution. In kind it is cell-based. As for the experimental part: as §1, §2
The next test has as its system T. versicolor. Put plainly: agar plate method, inhibition of fungus growth. In kind it is cell-based. The conditions noted are these: for percent inhibition (retardation) of the fungal growth, T. versicolor: aqueous solution. As for the experimental part:
as §1, §2

For test [1], the system named is brown-rot fungus G. trabeum. The experiment in a line: standard soil block test (American Wood Preservation Association E10) on extruded composites. The conditions noted are these: extruded samples containing the salt vs conventional lubricant control; 22 weeks G. trabeum. The procedure:
The efficacy of extruded samples containing alkyldimethylbenzyl ammonium lauryl sulfate or didecyldimethyl ammonium lauryl sulfate to inhibit fungal growth was evaluated by the standard soil block test method (American Wood Preservation Association E10) known in the art. The biocide effectiveness is determined by % weight loss in wood component of the tested samples. The sample blocks (13 mm×14 mm×14 mm) were exposed to the brown-rot fungus G. trabeum for 22 weeks, with four replicates per treatment.

[2] abbreviates: Chaetomium globosum, read-out: percent inhibition (retardation) of the fungal growth, C. globosum.
[3] abbreviates: Gloeophyllum trabeum, read-out: percent inhibition (retardation) of the fungal growth, G. trabeum.
[4] abbreviates: read-out: percent inhibition (retardation) of the fungal growth, P. placenta.
The mark [5] stands for this setting: Trametes versicolor, read-out: percent inhibition (retardation) of the fungal growth, T. versicolor.

As a reminder, the inhibition is the share of the control response that was lost under treatment. `CCCCCCCCCC[N+](C)(C)CCCCCCCCCC` [didecyldimethyl ammonium chloride, reference compound]: the inhibition at 50 ppm with C. globosum (setting [2]) stood at 68.2%; in the test with G. trabeum (setting [3]), 78.4%; with P. placenta (setting [4]), 88.4%; with T. versicolor (setting [5]), 36.8%. The inhibition at 500 ppm amounted to 74.3% in the test on C. globosum (setting [2]), 82.4% with G. trabeum (setting [3]), 89.2% in the test with P. placenta (setting [4]) and 80.7% in the test with T. versicolor (setting [5]).

Didecyldimethyl ammonium lauryl sulfate: the “percent inhibition (retardation) of the fungal growth, C. globosum” value (“percent inhibition (retardation) … C. globosum” for short) is reported as 68.0% in the test with C. globosum (50 ppm) and 78.7% in the test with C. globosum (500 ppm). Also, the “percent inhibition (retardation) of the fungal growth, G. trabeum” value (shortened to “percent inhibition (retardation) … G. trabeum”) is listed as 58.0% in the test with G. trabeum (50 ppm) and 80.8% with G. trabeum (500 ppm). In addition, the entries for the “percent inhibition (retardation) of the fungal growth, P. placenta” value (shortened to “percent inhibition (retardation) … P. placenta”) in the test with P. placenta (50 ppm) and with P. placenta (500 ppm) were 82.6% and 86.0%, respectively. Moreover, the “percent inhibition (retardation) of the fungal growth, T. versicolor” value (“percent inhibition … T. versicolor” below) in the test on T. versicolor (50 ppm) is listed as 44.0%; in the test on T. versicolor (500 ppm), 81.3%. For the same compound, the “weight loss compared with control samples” value in test [1] is given as “significantly lower weight loss than the control samples”.

Regarding “alkyldimethylbenzyl ammonium chloride [reference compound]”, the “percent inhibition (retardation) … C. globosum” value in the test with C. globosum (50 ppm) stood at 63.8%; in the test with C. globosum (500 ppm), 81.8%. Moreover, the figures for the “percent inhibition (retardation) … G. trabeum” value with G. trabeum (50 ppm) and in the test on G. trabeum (500 ppm) were 82.1% and 89.0%, respectively. In addition, the “percent inhibition (retardation) … P. placenta” value is on record as 86.8% in the test with P. placenta (50 ppm) and 87.5% in the test on P. placenta (500 ppm). Besides, the entries for the “percent inhibition … T. versicolor” value in the test with T. versicolor (50 ppm) and in the test with T. versicolor (500 ppm) were 55.0% and 85.0%, respectively.

Turning to “alkyldimethylbenzyl ammonium lauryl sulfate”, the “percent inhibition (retardation) … C. globosum” value in the test with C. globosum (50 ppm) stood at 64.5%; in the test on C. globosum (500 ppm), 75.6%. In addition, the “percent inhibition (retardation) … G. trabeum” value with G. trabeum (50 ppm) worked out at 51.7%; with G. trabeum (500 ppm), 82.3%. Moreover, the “percent inhibition (retardation) … P. placenta” value with P. placenta (50 ppm) was 83.0%; in the test with P. placenta (500 ppm), 86.6%. Besides, the “percent inhibition … T. versicolor” value in the test on T. versicolor (50 ppm) is on record as 32.2%; in the test on T. versicolor (500 ppm) it was 72.9%. For the same compound, the “weight loss compared with control samples” value in test [1] is given as “significantly lower weight loss than the control samples”.
